# From PubChem BioAssay (NCI)
#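 1) Cells in 96-well plates. 2) Compound, 48 h, 5 concentrations. 3) Linear interpolation between surrounding doses. 4) Unreached endpoint = highest concentration. GI50 marks 50% less growth. TGI: total growth inhibition.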
# How the values were obtained:
# Experiment in all cases: DTP human tumour cell line panel, 48 h
# [1] = system: SF-268 CNS
# [2] = system: HT29 colon
# [3] = system: EKVX NSCLC
# [4] = system: SNB-19 CNS
# [5] = system: SK-MEL-28 melanoma
# [6] = system: SF-295 CNS
# [7] = system: M14 melanoma
# [8] = system: SF-539 CNS
# [9] = system: NCI-H23 lung
# [10] = system: MDA-MB-435
SMILES,TGI [1] [µM],TGI [2] [µM],TGI [3] [µM],TGI [4] [µM],TGI [5] [µM],TGI [6] [µM],TGI [7] [µM],TGI [8] [µM],TGI [9] [µM],GI50 [1] [µM],GI50 [2] [µM],GI50 [3] [µM],GI50 [4] [µM],GI50 [5] [µM],GI50 [10] [µM],TGI [10] [µM],GI50 [6] [µM],GI50 [7] [µM],GI50 [9] [µM],GI50 [8] [µM]
NC1=NN(c2ccccc2)C(=O)C1C(=O)C(=O)Nc1ccc(Cl)c(Cl)c1 (configuration not stated),> 100,> 100,> 100,> 100,> 100,> 100,> 100,> 100,> 100,,,,,,,,,,,
Cc1cc(=O)n(-c2cc3cccccc-3n2)[nH]1,,35.6,96.7,> 100,> 100,> 100,19.6,59,47.4,,,,,,,,,,,
O=C(O)C1[O][Sb][O]C(C(=O)O)C1O (configuration not stated),> 100,> 100,> 100,> 100,> 100,> 100,> 100,,> 100,> 100,> 100,> 100,> 100,> 100,> 100,> 100,> 100,> 100,> 100,
Cc1cccc(C)c1N1C(=O)C(=O)C(c2nc3ccccc3s2)/C(=N\N)C1=O (configuration not stated),> 100,> 100,> 100,> 100,> 100,> 100,> 100,> 100,> 100,,,,,,,,,,,
CCOc1ccccc1N=Nc1c(-c2ccccc2)nn(C(=O)CC(=O)Nc2cccc(C)c2)c1-c1ccccc1,> 100,> 100,> 100,> 100,> 100,> 100,> 100,> 100,> 100,,,,,,,,,,,
O=C(Nc1ccc(Cl)cc1Cl)OC(Cn1cncn1)c1ccc(Cl)cc1Cl (configuration not stated),31.9,28.5,31.5,30.8,30.1,31.4,32.1,32.5,28.4,,,,,,,,,,,
COC(=O)C1=CC2C=CC(C1C(=O)OC)C1C(C(=O)OC)=C(C(=O)OC)C(C(=O)OC)=C(C(=O)OC)C21OC (configuration not stated),> 100,> 100,> 100,,> 100,> 100,> 100,> 100,> 100,,,,,,,,,,,
COc1ccc(OC)c(/C=N/N=C(\N)NO)c1,> 100,> 100,> 100,> 100,> 100,> 100,89.4,> 100,> 100,,,,,,,,,,,
CC(C)COc1nc2c(c(=O)n(C)c(=O)n2C)n1C,> 100,,> 100,> 100,> 100,> 100,> 100,> 100,> 100,> 100,,> 100,> 100,> 100,> 100,> 100,> 100,> 100,> 100,> 100
CCN(CC)CCCC(C)N/C(=C1\C(=O)NC(=O)\C1=C(/NC(C)CCCN(CC)CC)c1cccc(OC)c1)c1cccc(OC)c1 (configuration not stated),3.11,2.01,,9.01,1.67,1.78,1.75,1.51,3.15,1.03,0.372,,1.99,0.913,0.803,1.52,0.813,0.932,1.19,0.791
CN(/N=C\c1ccnc2ccccc12)c1ccc([N+](=O)[O-])cc1,> 100,> 100,> 100,> 100,> 100,> 100,> 100,> 100,> 100,,,,,,,,,,,
COC(=O)C1C(=O)O[C@@H](c2cc(OC)c(OC)cc2OC)C1C(=O)OC (mixture of isomers),> 100,> 100,> 100,> 100,> 100,> 100,> 100,> 100,> 100,,,,,,,,,,,
COC1(OC)C2(Cl)C(Cl)=C(Cl)C1(Cl)C1C2C2CC1(C(=O)O)c1ccccc12 (configuration not stated),55.8,76.3,,> 100,38.9,56.8,32,,28.4,,,,,,,,,,,
COC(=O)[C@@H]1Cc2c([nH]c3ccccc23)[C@H](c2ccccc2)N1,> 100,> 100,> 100,> 100,> 100,64.4,79.6,67.3,> 100,,,,,,,,,,,
CNS(=O)(=O)NNS(=O)(=O)c1ccc(OC)cc1,> 100,> 100,> 100,> 100,,> 100,> 100,> 100,> 100,,,,,,,,,,,
Cc1cc(C)c(-c2noc(-c3ccc(Cl)cc3)c2C2=NCCCN2)c(C)c1,49.6,32.5,> 100,> 100,29.9,25.4,6.11,30.5,40.1,,,,,,,,,,,
COc1c(-c2ccccc2)nc2ccc(Oc3ccccc3)nn12,> 100,> 100,> 100,> 100,99.5,> 100,> 100,> 100,> 96.5,,,,,,,,,,,
COc1cccc(Nc2nc3ccccc3c3occc23)c1,34.1,,36.9,25.8,29.9,14.6,28.6,35.1,22.6,13.9,,14.3,12.9,14.5,10.7,22.6,3.92,13.9,10.2,17.3
COC1OC2COC(C)(C)OC2C(OC(C)=O)C1NC(=O)N(CCCl)N=O (configuration not stated),> 100,> 100,> 100,> 100,> 100,> 100,> 100,93.1,> 100,,,,,,,,,,,
